This note sets out measurements from publication PMC9046208, “Foldamers reveal and validate therapeutic targets associated with toxic α-synuclein self-assembly” (Nature Communications, 2022).

Molecules are shown by their SMILES.

In experiment [1] the test system is HEK293 cells expressing αS-A53T-YFP. Put plainly: MTT assay, HEK293 cells αS-A53T-YFP, recombinant αS fibers. The format is cell-based. Further details: key to MTT read-out (viability of HEK cells): absorbance at 570 nm (dissolved formazan). Particulars: for MTT read-out (viability of HEK cells): 7 μM αS + SK-129 equimolar. The method, then:
The HEK293 cells that stably express αS-A53T-YFP and αS-YFP were grown in DMEM with 10% FBS and 1% pen/strep and cultured in an incubator at 37 °C and 5% CO2(g). A total of 60,000 cells per well in 300 µL media were plated in a µ-slide eight-well plate (Ibidi, Munich, Germany) and incubated for 24 h to adhere to the plate. […] Next, the plate was incubated for 24 h, followed by the addition of 30 µL of 1x PBS buffer containing MTT dye (in 1x PBS buffer, 5 mg/mL) to each well. The plates were wrapped in aluminum foil and incubated for 3 h. After 3 h, all liquid was aspirated carefully without disturbing the formazan crystals. To each well, 300 µL of DMSO was added to dissolve the crystals. Once dissolved, the DMSO solution was transferred to a clear 96-well plate (100 µL/well). The absorbance was read on a 96-well plate reader at 570 nm. The cytotoxicity of the HEK cells was monitored for up to 4 days.
The seeds were generated by aggregating recombinant αS (100 µM) in the absence and presence of SK-129 at an equimolar ratio under the ThT aggregation kinetic conditions for seven days. In the case of seeds from the brain, we used a PMCA sample (5th cycle) generated from the brain seeds in the absence and presence of SK-129 at an equimolar ratio.

For experiment [2], the target named is T1, αS (Homo sapiens, UniProt P37840).
T1 construct: made in house; host or cells: Escherichia coli BL21(DE3), periplasm
Kind of experiment: FP displacement titration of αS-SK-129F complex with SK-129. The format is binding. Particulars: displacement of SK-129F from αS-SK-129F complex by SK-129, n = 3. How it is done: All Fluorescence Polarization (FP) experiments were conducted on a Varian Cary Eclipse fluorometer (Agilent, Santa Clara, CA) equipped with a polarizer. The stock solutions of αS, 1 mM or 100 μM in 1x PBS buffer, were serially added into a solution of 10 μM SK-129F (300 μL in 1x PBS buffer) while stirring in a quartz cuvette (Fireflysci, Staten Island, NY). All FP measurements were conducted in triplicates in 20 mM Tris, 100 mM NaCl, pH 7.2 at 20 °C. The excitation and emissions wavelengths were set at 490 nm and 520 nm, respectively. Each titration was equilibrated for five min before measurements were taken for the next addition of αS solution. The addition of αS solution was continuous until no more change in the FP signal was observed. Similar conditions were used for the titration of various αS mutants and Aβ42 peptide against SK-129F. […] The polarization of each point was calculated using Eq. 1:1 FP=I∥−I⊥/I∥+I⊥ Where I∥ is fluorescence intensity parallel to the excitation plane and I⊥ is fluorescence intensity perpendicular to the excitation plane. […]
affinity of SK-129 against αS. The fluorescence polarization titrations between SK129 and the preformed saturated complex of SK129 F-αS were conducted three times and each point in titrations was the average of three data points. […]

On to `COC(=O)c1cc(OCC(=O)O)c2cccc(NC(=O)c3cc(OC(C)C)c4cccc(NC(=O)c5cc(OCC(=O)O)c6cccc(NC(=O)c7cc(OC(C)C)c8cccc([N+](=O)[O-])c8n7)c6n5)c4n3)c2n1` [SK-129], for which the “MTT read-out (viability of HEK cells)” value in experiment [1] (trial 1) is reported as 0.806; in experiment [1] (trial 2), 0.8743; in experiment [1] (trial 3), 0.8833; in experiment [1] (trial 4) it was 0.8674; in experiment [1] (trial 5), 0.8626; in experiment [1] (trial 6), 0.8492. Besides, the “MTT read-out (viability of HEK cells)” value in experiment [1] (trial 7) is given as 0.941; in experiment [1] (trial 8), 0.878; in experiment [1] (trial 9), 0.892; in experiment [1] (trial 10), 0.917; in experiment [1] (trial 11), 0.805; in experiment [1] (trial 12) it was 0.8882. In addition, the “MTT read-out (viability of HEK cells)” value was found to be 0.8431 in experiment [1] (trial 13), 0.8823 in experiment [1] (trial 14), 0.919 in experiment [1] (trial 15) and 0.8589 in experiment [1] (trial 16). Also, the “viability of HEK cells” value in experiment [1] (αS aggregated with SK-129 equimolar, 7 μM, 24 h, αS alone 68%) came to 94%. Further, in experiment [2], the Kd was found to be 720 ± 60 nM.
